Key:
[1] = molecular target: T1, calcium independent cytosolic phospholipase A2/B (Cricetulus griseus, UniProt A0A3L7I2I8); test: Phospholipase hydrolysis assays, format not specified; format: biochemical, Chinese hamster
T1 construct: purified from the cytosol of Chinese hamster ovary (CHO) cells; endogenous in cells; host or cells: CHO cells (cytosol; Mono P / heparin / size-exclusion fractions)
T1 sequence (A0A3L7I2I8 1-752 isoform A0A3L7I2I8-2): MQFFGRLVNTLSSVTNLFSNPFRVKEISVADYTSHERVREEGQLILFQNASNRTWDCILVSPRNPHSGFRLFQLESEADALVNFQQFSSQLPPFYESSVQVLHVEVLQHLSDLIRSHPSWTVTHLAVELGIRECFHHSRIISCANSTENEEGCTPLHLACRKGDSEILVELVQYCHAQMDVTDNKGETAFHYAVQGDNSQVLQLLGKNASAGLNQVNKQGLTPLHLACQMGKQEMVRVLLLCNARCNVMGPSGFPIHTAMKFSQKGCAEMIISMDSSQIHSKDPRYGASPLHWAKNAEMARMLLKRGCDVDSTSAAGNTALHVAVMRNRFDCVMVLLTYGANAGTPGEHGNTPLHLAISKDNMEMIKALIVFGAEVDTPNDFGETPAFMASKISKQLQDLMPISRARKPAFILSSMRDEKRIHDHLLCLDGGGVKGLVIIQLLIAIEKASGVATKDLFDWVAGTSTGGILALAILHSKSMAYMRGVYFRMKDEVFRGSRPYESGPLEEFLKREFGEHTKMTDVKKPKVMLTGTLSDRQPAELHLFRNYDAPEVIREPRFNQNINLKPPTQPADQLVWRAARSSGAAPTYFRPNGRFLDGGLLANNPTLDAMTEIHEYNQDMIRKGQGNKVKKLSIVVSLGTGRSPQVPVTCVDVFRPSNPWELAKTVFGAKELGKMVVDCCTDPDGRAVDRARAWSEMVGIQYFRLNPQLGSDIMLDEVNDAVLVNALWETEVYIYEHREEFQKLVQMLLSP
Experimental: 1. sn-2 Hydrolysis Assays
(§1) A) Liposome: The lipid, e.g. 1-palmitoyl-2-[^14C]arachidonyl-sn-glycero-3-phosphocholine (PAPC), 55 mCi/mmol, was dried under a stream of nitrogen and solubilized in ethanol. The assay buffer contained 100 mM Tris-HCl pH 7, 4 mM EDTA, 4 mM EGTA, 10% glycerol and 25 μM of labelled PAPC, where the volume of ethanol added was no more than 10% of the final assay volume. The reaction was incubated for 30 minutes at 37° C. and quenched by the addition of two volumes of heptane:isopropanol:0.5M sulfuric acid (105:20:1 v/v). Half of the organic was applied to a disposable silica gel column in a vacuum manifold positioned over a scintillation vial, and the free arachidonic was eluted by the addition of ethyl ether (1 ml). The level of radioactivity was measured by liquid scintillation.
B) Mixed Micelle Basic: The lipid was dried down as in (A) and to this was added the assay buffer consisting of 80 mM glycine pH 9, 5 mM CaCl2 or 5 mM EDTA, 10% or 70% glycerol and […] triton X-100. The mixture was then sonicated for 30-60 seconds at 4° C. to form mixed micelles.
C) Mixed Micelle Neutral: As for (B) except 100 mM Tris-HCl pH 7 was used instead of glycine as the buffer.
Sn-1 hydrolysis assays are performed as described above for […], but using phospholipids labelled at the sn-1 substituent, e.g. 1-[^14C]-palmitoyl-2-arachidonyl-sn-glycero-3-phophocholine.

[2] = molecular target: T1, calcium independent cytosolic phospholipase A2/B; test: Liposome assay (Example 3A); format: biochemical, Chinese hamster; settings: assay of Example 3A (liposome)
Experimental: as §1, with “The reaction was incubated for 30 minutes at 37° C. and quenched by the addition of two volumes of heptane:isopropanol:0.5M sulfuric acid (105:20:1 v/v).” left out
Variations on this assay replace EDTA and EGTA with 10 mM CaCl2.

cPLA2 = molecular target: T2, cPLA2 (Homo sapiens, UniProt P47712); settings: comparison enzyme; cited from earlier work
T2 sequence (P47712 1-749): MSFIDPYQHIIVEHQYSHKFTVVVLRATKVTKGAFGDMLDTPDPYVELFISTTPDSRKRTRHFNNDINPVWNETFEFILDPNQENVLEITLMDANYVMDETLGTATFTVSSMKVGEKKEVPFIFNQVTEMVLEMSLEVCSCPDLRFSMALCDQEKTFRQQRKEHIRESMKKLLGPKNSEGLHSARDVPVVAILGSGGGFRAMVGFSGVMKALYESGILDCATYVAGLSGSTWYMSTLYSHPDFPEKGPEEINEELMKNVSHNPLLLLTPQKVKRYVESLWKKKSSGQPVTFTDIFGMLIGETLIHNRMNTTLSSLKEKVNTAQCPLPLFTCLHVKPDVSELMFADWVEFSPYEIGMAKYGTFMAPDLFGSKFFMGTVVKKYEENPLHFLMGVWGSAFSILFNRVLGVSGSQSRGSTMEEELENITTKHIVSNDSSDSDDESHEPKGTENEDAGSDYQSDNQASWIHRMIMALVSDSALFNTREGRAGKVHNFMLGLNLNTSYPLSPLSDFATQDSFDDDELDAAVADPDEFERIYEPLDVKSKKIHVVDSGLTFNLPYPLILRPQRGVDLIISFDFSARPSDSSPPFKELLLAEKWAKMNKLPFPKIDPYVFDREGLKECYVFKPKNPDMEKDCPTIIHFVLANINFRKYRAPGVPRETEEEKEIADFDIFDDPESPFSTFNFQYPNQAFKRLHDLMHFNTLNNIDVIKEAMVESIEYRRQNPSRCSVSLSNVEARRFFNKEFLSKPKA

Molecule: [Ca+2] [calcium]
- effect on enzyme activity ([1]; in all assays): suppressed

Molecule: triton X-100
- effect on enzyme activity [2]: suppressed

Molecule: CCCCCCCCO[C@@H]1O[C@H](CO)[C@@H](O)[C@H](O)[C@H]1O [octyl glucoside]
- inactivation of the enzyme by detergents [1]: inactivated

Molecule: C[C@H](CCC(=O)NCCC[N+](C)(C)CCCS(=O)(=O)[O-])[C@H]1CC[C@H]2[C@@H]3[C@H](O)C[C@@H]4C[C@H](O)CC[C@]4(C)[C@H]3C[C@H](O)[C@]12C [CHAPS]
- inactivation of the enzyme by detergents [1]: inactivated

Molecule: Nc1ncnc2c1ncn2[C@@H]1O[C@H](COP(=O)(O)OP(=O)(O)OP(=O)(O)O)[C@@H](O)[C@H]1O [adenosine triphosphate]
- effect on enzyme activity [2]: not stimulated

Molecule: NC(N)=O [urea]
- denaturant concentration that inactivates the enzyme ([1]; high concentration denaturants): above 3 M

B1: calcium independent phospholipase: 86 kD calcium independent cytosolic phospholipase enzyme purified from the cytosol of CHO cells, SEQ ID NO:2 (protein)
chain: T1 sequence (A0A3L7I2I8 1-752 isoform A0A3L7I2I8-2)
- pH optimum [1]: 6
- initial rate of hydrolysis, sn-2 position higher than sn-1 ([1]; PAPC with either palmitoyl or arachidonyl labelled with 14C): 2-3 fold

B2: cPLA2: 110 kD calcium dependent cytosolic phospholipase A2 of U.S. Pat. No. 5,322,776 (protein, UniProt P47712 1-749, looked up)
Cytosolic phospholipase A2: T2 sequence (P47712 1-749)
- pH optimum (cPLA2): greater than 8

From US6645736B2, “Calcium independent cytosolic phospholipase A2/B enzymes” (Genetics Institute, LLC, priority 1994, dated 2003)
